What was measured:
human CCR2 = molecular target: T1, human CCR2 (Homo sapiens, UniProt P41597); assay: Functional Ca2+ release test (B-1); format: cell-based; settings: Chem-1 cell line transfected with human CCR2; 50% inhibition of the MCP-1 effect, MCP-1 at EC50 (about 5 nM); in some cases means of several determinations
T1 construct: host or cells: Chem-1 cell line
T1 sequence (P41597 1-360 isoform P41597-2): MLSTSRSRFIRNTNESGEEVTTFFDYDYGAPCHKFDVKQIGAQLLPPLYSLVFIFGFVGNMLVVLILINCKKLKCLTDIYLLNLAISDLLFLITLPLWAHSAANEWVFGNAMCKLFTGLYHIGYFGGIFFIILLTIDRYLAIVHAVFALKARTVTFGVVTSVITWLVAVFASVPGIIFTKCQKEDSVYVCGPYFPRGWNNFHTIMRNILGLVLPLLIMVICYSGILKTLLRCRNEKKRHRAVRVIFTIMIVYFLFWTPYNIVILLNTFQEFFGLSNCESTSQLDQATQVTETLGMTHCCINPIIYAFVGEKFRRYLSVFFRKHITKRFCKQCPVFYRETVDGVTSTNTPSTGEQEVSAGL
Method: The antagonistic action of test substances on CCR2 was determined in a functional Ca^2+ release test. Binding of CCL2/MCP-1 to CCR2 leads to a change in the conformation of the receptor resulting in Gi/Gq protein activation and intracellular signal cascade. This involves, inter alia, an intracellular Ca^2+ release. The test cell used was a Chem-1 cell line transfected with human CCR2 (ChemiSCREEN™ CCR2B Calcium-Optimized FLIPR Cell Line, Merck Millipore).
(§1) The test substances were dissolved in dimethyl sulphoxide (DMSO) at a concentration of 10 mM and serially diluted with DMSO in steps of 1:3.16 for a 10-point dose/activity analysis. According to the desired test concentrations, the substances were pre-diluted in Tyrode with 2 mM CaCl2 and 0.05% BSA.
The cells, cultivated in DMEM high glucose [supplemented with 10% FCS, 1 mM pyruvate, 15 mM HEPES, 500 μg/ml geniticin and non-essential amino acids (NEAA)], were sown at 5000 cells/25 μl in 384 well, μCLEAR/black cell culture plates from Greiner (#781092) and incubated at 37° C. for 24 h. The sowing medium consisted of DMEM high glucose [supplemented with 5% FCS, 1 mM pyruvate, 15 mM HEPES, 50 U/ml penicillin, 50 μg/ml streptomycin and non-essential amino acids (NEAA)]. The medium was then removed and the cells were charged for 60 min at 37° C. with Fluo-4 dye [25 μl Tyrode with 3 μM Fluo-4 AM (1 mM DMSO stock solution), 0.4 mg/ml Brilliant Black, 2.5 mM probenicid, 0.03% Pluronic F-127]. The cells were pre-incubated for 10 min with 10 μl of the test substances diluted in buffer, and 20 μl of agonist solution (MCP-1 in Tyrode with 0.05% BSA) were then added. MCP-1 was employed at the concentration which corresponds to the EC50 which had been determined in a preliminary test (usually about 5 nM). Ca^2+ release was monitored over a period of 120 s in 1 s increments in a proprietary fluorescence imaging reader. The molar concentration of the test substance which caused 50% inhibition of the MCP-1 effect (IC50) was determined using a 4-parameter logistic function (Hill function).

murine CCR2 = molecular target: T2, murine CCR2 (Mus musculus, UniProt P51683); assay: Functional β-arrestin recruiting test with murine MCP-1 (B-2b); format: cell-based; settings: U2OS β-arrestin cell line transfected with murine CCR2; agonist murine MCP-1; in some cases means of several determinations
T2 construct: host or cells: U2OS β-arrestin cell line
T2 sequence (P51683 whole entry): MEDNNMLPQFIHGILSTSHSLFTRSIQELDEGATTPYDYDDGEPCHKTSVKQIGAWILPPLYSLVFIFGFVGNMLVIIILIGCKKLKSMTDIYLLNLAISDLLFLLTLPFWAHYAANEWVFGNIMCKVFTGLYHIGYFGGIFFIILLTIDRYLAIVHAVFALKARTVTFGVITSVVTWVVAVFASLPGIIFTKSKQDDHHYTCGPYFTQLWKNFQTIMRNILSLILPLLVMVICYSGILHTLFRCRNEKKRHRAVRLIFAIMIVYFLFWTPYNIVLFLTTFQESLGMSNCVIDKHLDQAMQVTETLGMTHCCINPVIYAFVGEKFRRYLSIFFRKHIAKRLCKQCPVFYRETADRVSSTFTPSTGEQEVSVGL
Method: The antagonistic action of test substances on CCR2 was determined in a β-arrestin test. The PathHunter β-arrestin GPCR test system (DiscoveRx Corporation, Ltd.) is a cell-based functional method for detecting binding of β-arrestin to an activated receptor. The molecular basis is a […] complementation measured by the enzymatic conversion of a chemiluminescent substrate. The test cell used was a U2OS β-arrestin cell line transfected with murine CCR2 (93-0543C3, DiscoveRx Corporation, Ltd.).
as §1
The cells, cultivated in MEM Eagle (supplemented with 10% FCS, 50 U/ml of penicillin, 50 μg/ml of streptomycin, 250 μg/ml of hygromycin and 500 μg/ml of geniticin), were sown at 2000 cells/25 μl in 384 well, μCLEAR/black cell culture plates from Greiner (#781092) and incubated at 37° C. for 24 h. The sowing medium consisted of Opti-MEM (supplemented with 1% FCS, 50 U/ml of penicillin and 50 μg/ml of streptomycin). The cells were pre-incubated for 10 min with 10 μl of the test substances diluted in buffer, and 10 μl of agonist solution [human MCP-1 (PeproTech, #300-04) in Tyrode with 0.05% BSA) were then added. The human MCP-1 was employed at the concentration which corresponds to the EC50 which had been determined in a preliminary test (usually about 3 nM). After 90 min of incubation at 37° C., the solution was removed, and recruitment of β-arrestin to CCR2 was detected with the aid of the PathHunter detection reagent (93-001, DiscoveRx Corporation, Ltd.) according to the instructions of the manufacturer. Luminescence was measured after an incubation time of 60 min using a proprietary luminescence imaging measuring instrument. The molar concentration of the test substance which caused 50% inhibition of the MCP-1 effect (IC50) was determined using a 4-parameter logistic function (Hill function).
The test was carried out in a manner identical to that described above under B-2a, but using murine MCP-1 (PeproTech, #250-10) as agonist.

IC50 (human CCR2) | IC50 (murine CCR2) | SMILES
27 nM | 405 nM | O=c1[nH]c(-c2ncccc2C(F)(F)F)nc(C(F)(F)F)c1Oc1ccc(Cl)c(Cl)c1 [Example 185, 5-(3,4-dichlorophenoxy)-6-(trifluoromethyl)-2-[3-(trifluoromethyl)pyridin-2-yl]pyrimidin-4(3H)-one]
62 nM | 2110 nM | CC(C)(C)Sc1cccnc1-c1nc(C(F)(F)F)c(Oc2ccc(Cl)c(C(F)(F)F)c2)c(=O)[nH]1 [Example 190]
1.4 nM | 412 nM | COc1cccnc1-c1nc(C(F)(F)F)c(Oc2ccc(Cl)c(OC(F)(F)F)c2)c(=O)[nH]1 [Example 138]
9.5 nM | 475 nM | O=c1[nH]c(-c2cccnn2)nc(C(F)(F)F)c1Oc1ccc(Cl)c(Cl)c1 [Example 125, 5-(3,4-dichlorophenoxy)-2-(pyridazin-3-yl)-6-(trifluoromethyl)pyrimidin-4(3H)-one]
76 nM | 6760 nM | CC(C)(C)c1nncn1-c1nc(C(F)(F)F)c(Oc2ccc(Cl)c(Cl)c2)c(=O)[nH]1 [Example 251]
4.1 nM | 942 nM | CC(C)Oc1cnn(-c2nc(C(F)(F)F)c(Oc3ccc(Cl)c(Cl)c3)c(=O)[nH]2)c1 [Example 250]
103 nM | 679 nM | C[S+]([O-])c1cccnc1-c1nc(C(F)(F)F)c(Oc2ccc(Cl)c(Cl)c2)c(=O)[nH]1 (stereo not drawn) [Example 267, 5-(3,4-Dichlorophenoxy)-2-[3-(methylsulphinyl)pyridin-2-yl]-6-(trifluoromethyl)pyrimidin-4(3H)-one]
1120 nM | 13900 nM | O=c1[nH]c(-c2ccnnc2)nc(C(F)(F)F)c1Oc1ccc(Cl)c(Cl)c1 [Example 126, 5-(3,4-dichlorophenoxy)-2-(pyridazin-4-yl)-6-(trifluoromethyl)pyrimidin-4(3H)-one]
38 nM | 1340 nM | O=c1[nH]c(-n2cncn2)nc(C(F)(F)F)c1Oc1ccc(Cl)c(Cl)c1 [Example 255, 5-(3,4-Dichlorophenoxy)-2-(1H-1,2,4-triazol-1-yl)-6-(trifluoromethyl)pyrimidin-4(3H)-one]
1.5 nM | 828 nM | O=c1[nH]c(-c2ncccc2-c2ccccc2)nc(C(F)(F)F)c1Oc1ccc(Cl)c(C(F)(F)F)c1 [Example 188, 5-[4-chloro-3-(trifluoromethyl)phenoxy]-2-(3-phenylpyridin-2-yl)-6-(trifluoromethyl)pyrimidin-4(3H)-one]
0.2 nM | 7.6 nM | CSc1cccnc1-c1nc(C(F)(F)F)c(Oc2ccc(Cl)c(Cl)c2)c(=O)[nH]1 [Example 115, 5-(3,4-dichlorophenoxy)-2-[3-(methylsulphanyl)pyridin-2-yl]-6-(trifluoromethyl)pyrimidin-4(3H)-one]
4.6 nM | 1320 nM | CCCc1cc(-c2nc(C(F)(F)F)c(Oc3ccc(Cl)c(C(F)(F)F)c3)c(=O)[nH]2)no1 [Example 216]
5.3 nM | 227 nM | O=c1[nH]c(-c2nsc(Cl)c2Cl)nc(C(F)(F)F)c1Oc1ccc(Cl)c(C(F)(F)F)c1 [Example 228]
2.8 nM | 276 nM | Nc1cnc2cnn(-c3nc(C(F)(F)F)c(Oc4ccc(Cl)c(Cl)c4)c(=O)[nH]3)c2c1 [Example 257]
2.8 nM | 158 nM | O=c1[nH]c(-c2ccncc2Cl)nc(C(F)(F)F)c1Oc1ccc(Cl)c(C(F)(F)F)c1 [Example 131, 2-(3-chloropyridin-4-yl)-5-[4-chloro-3-(trifluoromethyl)phenoxy]-6-(trifluoromethyl)pyrimidin-4(3H)-one]
0.7 nM | 526 nM | COc1cccc(-c2nc(C(F)(F)F)c(Oc3ccc(Cl)c(C(F)(F)F)c3)c(=O)[nH]2)n1 [Example 149, 5-[4-chloro-3-(trifluoromethyl)phenoxy]-2-(6-methoxypyridin-2-yl)-6-(trifluoromethyl)pyrimidin-4(3H)-one]
20 nM | 796 nM | COc1nn(C)cc1-c1nc(C(F)(F)F)c(Oc2ccc(Cl)c(C(F)(F)F)c2)c(=O)[nH]1 [Example 235]
16 nM | 1600 nM | O=c1[nH]c(-c2ncccc2-c2ccccc2)nc(C(F)(F)F)c1Oc1ccc(Cl)c(Cl)c1 [Example 187, 5-(3,4-dichlorophenoxy)-2-(3-phenylpyridin-2-yl)-6-(trifluoromethyl)pyrimidin-4(3H)-one]
53 nM | 1030 nM | CC(C)(C)Sc1cccnc1-c1nc(C(F)(F)F)c(Oc2ccc(Cl)c(Cl)c2)c(=O)[nH]1 [Example 189]
2.1 nM | 51 nM | CN(C)c1ccc(-c2nc(C(F)(F)F)c(Oc3ccc(Cl)c(C(F)(F)F)c3)c(=O)[nH]2)nc1 [Example 134, 5-[4-chloro-3-(trifluoromethyl)phenoxy]-2-[5-(dimethylamino)pyridin-2-yl]-6-(trifluoromethyl)pyrimidin-4(3H)-one]
0.9 nM | 212 nM | CC(=O)Nc1ccc(-c2nc(C(F)(F)F)c(Oc3ccc(Cl)c(Cl)c3)c(=O)[nH]2)nc1 [Example 202]
0.2 nM | 43 nM | O=c1[nH]c(-c2ccsn2)nc(C(F)(F)F)c1Oc1ccc(Cl)c(Cl)c1 [Example 233]
129 nM | 7680 nM | CC(C)Oc1ccc(-c2nc(C(F)(F)F)c(Oc3ccc(Cl)c(Cl)c3)c(=O)[nH]2)cn1 [Example 163, 5-(3,4-dichlorophenoxy)-2-(6-isopropoxypyridin-3-yl)-6-(trifluoromethyl)pyrimidin-4(3H)-one]
26 nM | 2490 nM | Cn1nc(-c2nc(C(F)(F)F)c(Oc3ccc(Cl)c(Cl)c3)c(=O)[nH]2)c2cccnc21 [Example 205]
1.7 nM | 585 nM | COc1cccnc1-c1nc(C(F)(F)F)c(Oc2ccc(C)c(Cl)c2)c(=O)[nH]1 [Example 196, 5-(3-chloro-4-methylphenoxy)-2-(3-methoxypyridin-2-yl)-6-(trifluoromethyl)pyrimidin-4(3H)-one]
2.7 nM | 153 nM | CNc1cccc(-c2nc(C(F)(F)F)c(Oc3ccc(Cl)c(C(F)(F)F)c3)c(=O)[nH]2)n1 [Example 167, 5-[4-chloro-3-(trifluoromethyl)phenoxy]-2-[6-(methylamino)pyridin-2-yl]-6-(trifluoromethyl)pyrimidin-4(3H)-one]

SMILES | IC50 (human CCR2) | IC50 (murine CCR2)
CC(C)(C)Oc1cccc(-c2nc(C(F)(F)F)c(Oc3ccc(Cl)c(Cl)c3)c(=O)[nH]2)n1 [Example 146, 2-(6-tent-butoxypyridin-2-yl)-5-(3,4-dichlorophenoxy)-6-(trifluoromethyl)pyrimidin-4(3H)-one] | 404 nM | 3500 nM

From patent US20160237059A1, “HETEROCYCLIC SUBSTITUTED TRIFLUOROMETHYL PYRIMIDINONES AND THEIR USE” (BAYER PHARMA AKTIENGESELLSCHAFT, priority 2013, published 2016)
